Measured values published in patent US9261498B2, “Biomarker for sensitivity to mTOR inhibitor therapy in kidney cancer” (The Regents of the University of California, priority 2005, dated 2016).

System: SN12C-CSCG and ACHN-CSCG xenograft tumors
Experiment: Subcutaneous xenograft tumor growth, parental tumors
Format: in vivo, SCID mice
Conditions: 0.1 mg/kg CCI-779 daily
Description: FIGS. 1A-1E. Effects of VHL knockdown on sensitivity to CCI-779. (a) Immunoblotting of lysates derived from shRNA and control (empty vector, V) in SN12C, using antibodies against VHL (both isoforms detected), HIF-1α, HIF-2α, GLUT-1, CA-IX and β-Actin (as a loading control). (b) SN12C-CSCG and SN12C-VHLshRNA cells (1×10^5) were cultured in 10% serum rich media, in the presence of vehicle, 1 or 10 nM of CCI-779 for 5 days. Cell growth was measured by cell counts (n=3). […] (c) SN12C-CSCG (C1) and SN12C-CSCG shVHL RNA (C2) cells were injected into SCID mice at a dose of 1×10^6 cells per mouse (n=30). […] Phosphorylated-S6 protein in SN12C-CSCG and SN12C-VHL shRNA xenograft tumors treated with vehicle or 0.1 mg/kg of CCI-779 was measured by immunoblot C3 and C4). […]
For in vitro experiments, cells (5×10^4) were plated and treated with 1 and 10 nM CCI-779 (kind gift of J. Gibbons, Wyeth) or vehicle (ethanol). On day 5-post treatment, cells were trypsinized, resuspended in DMEM with 10% FBS and counted using the VI CELL counter (Beckman Coulter), according to the manufacturer's instructions. […] In vivo tumorigenicity was measured by injection of 5×10^5 SN12C-CSCG, ACHN-CSCG, SN12C-CSCG-VHLshRNAi, ACHN-CSCG-VHLshRNAi, SN12C-CSCG-VHLshRNAi-pBABE, SN12C-CSCG-VHLshRNAi-pBABE-HA-HIF-2α (P405A; P531A) cells in 100 μl of Matrigel (Collaborative Biomedical) subcutaneously into the flanks of SCID mice. […]

Q: With `CO[C@H]1C[C@@H]2CC[C@@H](C)[C@@](O)(O2)C(=O)C(=O)N2CCCC[C@H]2C(=O)O[C@H]([C@H](C)C[C@@H]2CC[C@@H](OC(=O)C(C)(CO)CO)[C@H](OC)C2)CC(=O)[C@H](C)/C=C(\C)[C@@H](O)[C@@H](OC)C(=O)[C@H](C)C[C@H](C)/C=C/C=C/C=C/1C` [CCI-779] as the compound, how does the “growth of the parental tumors” value read?
A: The value was “no effect”.
